Values quoted from earlier work, collected in US11219662B2, “Methods for treating hypotension in a patient that has received an ACE inhibitor by administering angiotensin II” (La Jolla Pharma, LLC, priority 2016, dated 2022).

Conditions: no experiment described

## CC[C@H](C)[C@H](NC(=O)[C@H](Cc1ccc(O)cc1)NC(=O)[C@@H](N)C(C)C)C(=O)N[C@@H](Cc1cnc[nH]1)C(=O)N1CCC[C@H]1C(=O)N[C@@H](Cc1ccccc1)C(=O)O [Angiotensin IV, Val-Tyr-Ile-His-Pro-Phe]
Qualitative background statement
  activity compared with angiotensin II: less activity than angiotensin II

## Arg-Val-Tyr-Ile-His-Pro-Phe (RVYIHPF; printed: Arg-Val-Tyr-Ile-His-Pro-Phe) [Angiotensin III]
Of the activity of angiotensin II, background statement
  activity relative to the activity of angiotensin II: approximately 40%
